The text below walks through data of patent publication US20240327421A1 (Marquette University, priority 2017, published 2024).

For assay [1], the target named is T1, Glucocorticoid Receptor (GR) (Homo sapiens, UniProt P04150).
T1 sequence (P04150 524-758 limits assumed): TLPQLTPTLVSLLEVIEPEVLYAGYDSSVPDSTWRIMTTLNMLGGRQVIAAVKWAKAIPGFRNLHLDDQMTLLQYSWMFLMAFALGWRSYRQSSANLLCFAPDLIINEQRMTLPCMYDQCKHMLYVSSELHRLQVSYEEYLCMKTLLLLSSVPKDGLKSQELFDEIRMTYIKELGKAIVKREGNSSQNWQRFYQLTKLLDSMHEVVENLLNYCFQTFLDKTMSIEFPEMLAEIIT
Kind of assay: GeneBLAzer nuclear hormone receptor specificity assay, GR. The class given is cell-based. The settings on record: 0.25 to 25 μM; listed as ISP358-2.

Assay [2] has as its target T2, Thyroid Hormone Receptor (TRβ) (Homo sapiens, UniProt P10828).
T2 sequence (P10828 217-461 limits assumed): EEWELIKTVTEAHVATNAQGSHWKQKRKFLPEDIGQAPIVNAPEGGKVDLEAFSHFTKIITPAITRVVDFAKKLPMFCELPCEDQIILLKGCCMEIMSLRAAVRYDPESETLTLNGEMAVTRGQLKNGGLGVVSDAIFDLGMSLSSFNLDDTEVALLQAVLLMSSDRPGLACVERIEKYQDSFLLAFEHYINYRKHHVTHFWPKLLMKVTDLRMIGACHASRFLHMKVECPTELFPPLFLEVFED
Description: GeneBLAzer nuclear hormone receptor specificity assay, TRβ. It is filed as cell-based. The note with it: 0.25 to 25 μM; listed as ISP358-2.

“Also recorded” adds a separate entry of the source.

For `OC[C@H]1CC[C@H](c2ccc(O)cc2)CC1` [Compound 16], in assay [1], the “agonist activity, GR” value is “not an agonist; also recorded: no significant off-target activity”. Further, in assay [2], the “agonist activity, TRβ” value was “not an agonist; also recorded: no significant off-target activity”.
